Reference: ChEMBL document CHEMBL1201862, “PubChem BioAssay data set” (2004)
The source made the active and inactive calls.

How the values were obtained:
[1] = target: T1, Endoribonuclease toxin MazF (Escherichia coli K-12, UniProt P0AE70); experiment: activation of MazEF endoribonuclease cleavage – biochemical, fluorescence, single-stranded RNA substrate, uHTS hits, dose response (AID 588481); type: functional
T1 sequence (P0AE70 whole entry): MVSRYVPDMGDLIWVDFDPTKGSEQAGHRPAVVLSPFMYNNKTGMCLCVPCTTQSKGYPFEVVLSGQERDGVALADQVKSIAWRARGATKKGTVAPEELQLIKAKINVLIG

[2] = target: T1, Endoribonuclease toxin MazF; experiment: substrate-only fluorescence increase artefacts – biochemical, single-stranded RNase substrate, counter-screen for MazEF activator project, dose response (AID 588502); type: functional
[3] = target: T2, Corticotropin-releasing factor receptor 2/Corticotropin-releasing factor-binding protein (Homo sapiens, UniProt P24387+Q13324); experiment: activators of CRF receptor 2 with binding protein – uHTS hits, confirmation (AID 602473); type: functional; details: read-out: EC50_Mean
T2 sequence (Q13324 whole entry): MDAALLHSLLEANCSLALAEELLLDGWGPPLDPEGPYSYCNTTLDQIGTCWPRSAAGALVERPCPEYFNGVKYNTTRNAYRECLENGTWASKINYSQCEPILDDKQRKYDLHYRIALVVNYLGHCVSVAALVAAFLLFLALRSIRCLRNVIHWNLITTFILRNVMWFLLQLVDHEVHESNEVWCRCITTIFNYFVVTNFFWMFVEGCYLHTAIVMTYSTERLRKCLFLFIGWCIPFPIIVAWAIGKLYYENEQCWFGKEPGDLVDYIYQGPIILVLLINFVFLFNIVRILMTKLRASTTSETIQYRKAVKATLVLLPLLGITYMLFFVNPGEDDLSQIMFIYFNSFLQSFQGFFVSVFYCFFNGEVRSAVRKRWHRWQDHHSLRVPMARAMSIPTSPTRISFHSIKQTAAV
T2 sequence (P24387 whole entry): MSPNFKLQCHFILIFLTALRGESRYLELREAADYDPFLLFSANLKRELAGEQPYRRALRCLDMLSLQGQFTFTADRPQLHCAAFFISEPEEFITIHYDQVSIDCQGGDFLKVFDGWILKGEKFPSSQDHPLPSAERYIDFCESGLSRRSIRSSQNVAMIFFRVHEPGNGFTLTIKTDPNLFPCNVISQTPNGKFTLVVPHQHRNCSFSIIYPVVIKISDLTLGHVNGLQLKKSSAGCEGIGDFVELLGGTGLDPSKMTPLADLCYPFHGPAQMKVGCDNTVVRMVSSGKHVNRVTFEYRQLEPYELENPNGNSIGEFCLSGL

[4] = target: T3, Aminopeptidase N (Plasmodium falciparum FcB1/Columbia, UniProt O96935); experiment: malaria alanyl aminopeptidase activity blockers – biochemical, fluorogenic H-Leu-NHMec substrate, 1536-well (AID 1445); parameters: species or system Plasmodium falciparum 3D7, 3D7
T3 sequence (O96935 whole entry): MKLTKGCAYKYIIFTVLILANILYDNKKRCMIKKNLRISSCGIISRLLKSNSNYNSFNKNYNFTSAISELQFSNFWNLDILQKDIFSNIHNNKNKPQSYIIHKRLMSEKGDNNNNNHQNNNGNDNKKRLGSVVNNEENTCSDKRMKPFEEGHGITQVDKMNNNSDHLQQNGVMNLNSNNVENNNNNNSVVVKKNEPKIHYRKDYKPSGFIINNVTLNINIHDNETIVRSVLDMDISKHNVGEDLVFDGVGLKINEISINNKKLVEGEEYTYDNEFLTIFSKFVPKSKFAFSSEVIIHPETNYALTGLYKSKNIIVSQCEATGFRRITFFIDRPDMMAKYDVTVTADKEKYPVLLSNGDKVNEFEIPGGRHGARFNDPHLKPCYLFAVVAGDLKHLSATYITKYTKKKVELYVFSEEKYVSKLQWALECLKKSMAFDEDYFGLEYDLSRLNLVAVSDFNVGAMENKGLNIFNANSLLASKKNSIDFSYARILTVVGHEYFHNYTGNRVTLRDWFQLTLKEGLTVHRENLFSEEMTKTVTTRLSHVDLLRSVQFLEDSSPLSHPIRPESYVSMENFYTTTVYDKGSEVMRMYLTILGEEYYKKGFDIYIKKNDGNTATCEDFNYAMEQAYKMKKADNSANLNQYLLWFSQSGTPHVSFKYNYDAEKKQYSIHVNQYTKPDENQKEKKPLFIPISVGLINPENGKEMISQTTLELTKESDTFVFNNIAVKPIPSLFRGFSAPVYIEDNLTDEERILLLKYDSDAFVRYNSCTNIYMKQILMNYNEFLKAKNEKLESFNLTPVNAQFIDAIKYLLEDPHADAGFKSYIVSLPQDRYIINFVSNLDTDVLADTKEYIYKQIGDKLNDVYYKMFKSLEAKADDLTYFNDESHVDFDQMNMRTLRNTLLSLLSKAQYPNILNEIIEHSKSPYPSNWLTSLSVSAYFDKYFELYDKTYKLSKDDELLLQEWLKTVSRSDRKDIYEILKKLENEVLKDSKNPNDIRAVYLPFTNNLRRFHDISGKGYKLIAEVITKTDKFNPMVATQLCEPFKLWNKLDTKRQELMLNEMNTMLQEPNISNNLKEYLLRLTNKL

[5] = NIH-3T3 fibroblast cytotoxicity, dose response, cytotoxicity control, cell-based, fluorescence, Alamar Blue, secondary assay (AID 2327); type: functional;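 note: NIH-3T3 mouse fibroblasts cultured with fluconazole at 8 µg/mL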
[6] = A cytotoxicity screen of small molecule inhibitors of the PhoP region in Salmonella typhi identified in the primary screen. [Related pubchem assays: 1850, 1864, 1985 ]; type: functional
[7] = fluconazole-exposed Candida albicans growth modulators – fluorescence, retest, confirmation (AID 2467); type: functional, cell-based
[8] = target: Cytochrome P450 3A4 (Homo sapiens, UniProt P08684); details: Potency;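 note: confirmatory qHTS run detecting inhibitors and substrates of CYP3A4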
Sequence of Cytochrome P450 3A4 (P08684 whole entry): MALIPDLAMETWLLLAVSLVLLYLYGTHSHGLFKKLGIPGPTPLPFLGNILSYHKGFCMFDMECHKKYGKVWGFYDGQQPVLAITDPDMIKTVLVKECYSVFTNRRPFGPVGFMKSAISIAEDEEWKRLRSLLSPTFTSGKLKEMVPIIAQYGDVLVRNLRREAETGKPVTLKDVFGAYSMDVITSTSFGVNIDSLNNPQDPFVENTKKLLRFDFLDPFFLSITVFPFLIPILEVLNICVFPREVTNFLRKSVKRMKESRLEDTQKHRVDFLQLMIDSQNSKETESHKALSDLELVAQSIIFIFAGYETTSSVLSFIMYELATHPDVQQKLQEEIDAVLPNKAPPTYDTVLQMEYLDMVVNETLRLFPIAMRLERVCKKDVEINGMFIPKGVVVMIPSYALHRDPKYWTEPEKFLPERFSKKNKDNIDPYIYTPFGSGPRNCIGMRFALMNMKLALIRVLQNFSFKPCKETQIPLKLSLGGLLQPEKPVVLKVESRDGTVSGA

[9] = THP-1 cell cytotoxicity, dose response, cytotoxicity control for non-replicating M. tuberculosis project (AID 489025); type: functional
[10] = Vero E6 cell cytotoxicity, dose response, cytotoxicity control for non-replicating M. tuberculosis project, secondary assay (AID 492998); type: functional, VeroE6; details: Vero C1008
[11] = cells; type: functional
[12] = tested on: Vero; experiment: viability of Vero cells under compound – cytotoxicity control for flavivirus capping enzyme inhibitors (AID 588742); type: functional; details: Chlorocebus sabaeus
[13] = target: Genome polyprotein (dengue virus type 2, UniProt P29990); experiment: flavivirus cap methylation enzyme inhibition – biochemical, confirmation dose response, primary screen (AID 588689); type: functional
Sequence of Genome polyprotein (P29990 2492-3391 limits assumed): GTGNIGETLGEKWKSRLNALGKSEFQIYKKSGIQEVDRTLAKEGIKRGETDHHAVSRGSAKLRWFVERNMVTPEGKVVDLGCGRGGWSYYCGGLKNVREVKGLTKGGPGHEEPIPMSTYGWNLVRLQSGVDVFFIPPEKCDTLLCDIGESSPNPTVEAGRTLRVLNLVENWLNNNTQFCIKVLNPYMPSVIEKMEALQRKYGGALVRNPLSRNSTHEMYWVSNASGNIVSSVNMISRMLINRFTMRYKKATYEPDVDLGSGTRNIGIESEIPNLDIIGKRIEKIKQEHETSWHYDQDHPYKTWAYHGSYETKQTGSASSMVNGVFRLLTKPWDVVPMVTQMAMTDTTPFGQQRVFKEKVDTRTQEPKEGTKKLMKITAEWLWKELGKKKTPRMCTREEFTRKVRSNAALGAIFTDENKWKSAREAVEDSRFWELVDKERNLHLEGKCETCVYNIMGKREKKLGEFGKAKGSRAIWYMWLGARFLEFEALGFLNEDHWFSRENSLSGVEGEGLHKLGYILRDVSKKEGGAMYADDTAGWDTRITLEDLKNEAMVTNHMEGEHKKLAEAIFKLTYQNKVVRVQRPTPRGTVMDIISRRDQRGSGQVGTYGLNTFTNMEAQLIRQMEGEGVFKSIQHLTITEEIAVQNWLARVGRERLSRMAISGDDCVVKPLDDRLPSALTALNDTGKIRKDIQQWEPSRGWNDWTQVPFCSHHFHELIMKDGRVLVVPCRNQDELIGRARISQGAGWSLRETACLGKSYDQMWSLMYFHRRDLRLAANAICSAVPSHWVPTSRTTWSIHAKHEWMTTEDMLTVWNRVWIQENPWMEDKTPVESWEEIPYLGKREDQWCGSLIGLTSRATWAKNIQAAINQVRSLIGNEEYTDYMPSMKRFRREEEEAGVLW

[14] = Trypanosoma cruzi growth suppression in host cells – NIH3T3 host cells, beta-gal luminescence, confirmation (AID 2044); type: functional, cell-based;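 note: intracellular parasites grown in NIH/3T3 mouse fibroblasts as host cells; luminescent beta-galactosidase reporter signal from transgenic T. cruzi replicating inside host cells; inhibitors lower the luminescence signal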
[15] = NIH3T3 cell viability loss – ATP luminescence, mouse fibroblasts, counter-screen, dose response (AID 2010); type: functional, cell-based;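 note: cells exposed to compound for about 90 hours before reading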
[16] = target: Dual specificity tyrosine-phosphorylation-regulated kinase 1A (Rattus norvegicus, UniProt Q63470); type: biochemical, Homo sapiens

SMILES: COc1ccc(/C=N/Nc2ccc([N+](=O)[O-])cc2S(=O)(=O)N2CCN(C)CC2)cc1
- EC50 [1]: > 99 µM (inactive)
- EC50 [2]: 8.43 µM (active)
- EC50 [3]: 6.27 µM (active)

SMILES: Cc1cc(C(=O)NN=C(S)NCc2ccco2)nn1C
- IC50 [4]: 57.7 µM (active)

SMILES: CN(C)c1oc(/C=C/c2ccccc2)nc1C#N
- IC50 [4]: 23.9 µM (active)

SMILES: O=C(Nc1nonc1NC(=O)c1cccs1)c1cccs1
- EC50 [5]: > 150 µM (inactive)
- EC50 [6]: > 50 µM (active)
- EC50 [7]: 0.44 µM (active)

SMILES: CCNC(=S)NCC
- AC50 [8]: 6.31 µM (inconclusive)

SMILES: COc1ccc(OC)c(NC(=O)C(=O)NNC(=O)C23CC4CC(CC(C4)C2)C3)c1
- CC50 [9]: > 40 µM (active)
- CC50 [10]: > 20 µM (active)
- IC50 [11]: 8.62 µM (active)

SMILES: CCCCCCC#CC1C=CC(Oc2ccc(C=O)cc2)C(CO)O1 (stereo not given)
- AC50 [8]: 3.98 µM (inconclusive)

SMILES: Cc1ccc(S(=O)(=O)N2[C@@H](c3ccc(Br)cc3)C(C(=O)O)=CC[C@H]2c2ccc(C(C)C)cc2)cc1
- CC50 [12]: > 40 µM (active)
- IC50 [13]: 32.9 µM (active)

SMILES: O=C(NCCN1CCOCC1)c1cc2c(=O)n3ccccc3nc2n1Cc1ccccc1
- IC50 [4]: 102 µM (active)

SMILES: O=C(Nc1ncc([N+](=O)[O-])s1)c1cccs1
- EC50 [5]: > 150 µM (inactive)
- EC50 [7]: 0.069 µM (active)
- CC50 [9]: 34.3 µM (active)
- CC50 [10]: > 20 µM (active)

SMILES: COc1cc(C/C=C/c2ccccc2)c(OC)cc1O [VIOLASTYRENE]
- AC50 [8]: 39.8 µM (inconclusive)

SMILES: COc1ccc2c(C)cc(SCC(=O)Nc3cc(C(N)=O)cc(C(N)=O)c3)nc2c1
- EC50 [1]: > 99 µM (inactive)
- EC50 [2]: > 99 µM (inactive)

SMILES: CCOC(=O)OCC1OC(C#Cc2ccc(C)cc2C)C=CC1OC(=O)OCC (stereo not given)
- AC50 [8]: 3.98 µM (inconclusive)

SMILES: Cc1cc(Br)c(Cl)cc1NC(=O)CN1C(=O)C2C3CC(c4ccccc4)C(C3)C2C1=O (stereo not given)
- EC50 [14]: 2.59 µM (active)
- EC50 [15]: 7.41 µM (active)
- CC50 [12]: > 40 µM (active)

SMILES: O=C(Nc1cccc([N+](=O)[O-])c1)Nc1ccc2c(c1)CCC2
- EC50 [14]: 3.27 µM (active)
- EC50 [15]: > 60 µM (not active)
- EC50 [1]: > 99 µM (inactive)
- EC50 [2]: > 99 µM (inactive)

SMILES: COc1ccc(/C=C2\SC(N3CCCCC3)=NC2=O)cc1
- AC50 [16]: 0.308 µM (active)

SMILES: Clc1ccc(C(c2ccccc2)N2CCNCC2)cc1 (stereo not given) [NORCHLORCYCLIZINE]
- EC50 [6]: > 50 µM (active)

SMILES: Cc1ccccc1NC(=O)C1c2cccc[n+]2CC(=O)N1c1c(C)cccc1C (stereo not given)
- EC50 [1]: > 99 µM (inactive)
- EC50 [2]: > 99 µM (inactive)
